Source: patent US7855292B2, “Sulfonamide compounds” (Janssen Pharmaceutica NV, priority 2004, dated 2010)

How the values were obtained:
CCK-1 receptor = target: T1, CCK-1 receptor (Homo sapiens, UniProt P32238); assay: CCK1 binding assay ([125I]-BH-CCK-8S displacement, CHO-K1 membranes); conditions: membranes of CHO-K1 cells stably transfected with the CCK-1 receptor, 20 pM [125I]-BH-CCK-8S, 0.3 μM PD-134,308 present, 60 min at 21±3° C.; for Ki: read-out: CCK1 pKi (converted)
T1 construct: expressed in transfected cells; host or cells: CHO-K1
T1 sequence (P32238 1-428): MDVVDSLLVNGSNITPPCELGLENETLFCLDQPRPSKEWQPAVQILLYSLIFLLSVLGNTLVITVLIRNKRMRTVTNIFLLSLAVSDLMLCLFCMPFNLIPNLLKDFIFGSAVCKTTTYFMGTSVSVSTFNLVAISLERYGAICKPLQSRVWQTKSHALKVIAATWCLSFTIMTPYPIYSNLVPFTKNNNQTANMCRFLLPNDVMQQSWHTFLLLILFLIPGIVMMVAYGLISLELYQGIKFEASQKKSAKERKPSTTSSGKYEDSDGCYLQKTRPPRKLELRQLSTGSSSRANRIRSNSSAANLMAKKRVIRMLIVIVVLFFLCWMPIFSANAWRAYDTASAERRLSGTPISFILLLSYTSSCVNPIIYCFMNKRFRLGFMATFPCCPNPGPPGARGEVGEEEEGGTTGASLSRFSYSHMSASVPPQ
Procedure, shortened: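 Membranes from CHO-K1 cells stably expressing CCK-1 incubated 1 h at 21±3° C with 20 pM [125I]-BH-CCK-8S in HEPES buffer pH 7.2 containing 0.3 μM PD-134,308 to block CCK-2. Bound radioactivity read by gamma counting after filtration. pKi derived via Cheng-Prusoff, with specific binding defined using 2-NAP.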

CCK2 receptor = target: T2, CCK2 receptor (Homo sapiens, UniProt P32239); assay: CCK2 binding assay ([125I]-BH-CCK-8S displacement, HEKZFP membranes); conditions: membranes of doxycycline-induced HEKZFP cells, 20 pM [125I]-BH-CCK-8S, 60 min at 21±3° C.; for Ki: read-out: CCK2 pKi (converted)
T2 construct: analyzed for ZFP expression as well as CCK2R induction upon addition of doxycycline to the culture medium; endogenous in cells
T2 sequence (P32239 1-447): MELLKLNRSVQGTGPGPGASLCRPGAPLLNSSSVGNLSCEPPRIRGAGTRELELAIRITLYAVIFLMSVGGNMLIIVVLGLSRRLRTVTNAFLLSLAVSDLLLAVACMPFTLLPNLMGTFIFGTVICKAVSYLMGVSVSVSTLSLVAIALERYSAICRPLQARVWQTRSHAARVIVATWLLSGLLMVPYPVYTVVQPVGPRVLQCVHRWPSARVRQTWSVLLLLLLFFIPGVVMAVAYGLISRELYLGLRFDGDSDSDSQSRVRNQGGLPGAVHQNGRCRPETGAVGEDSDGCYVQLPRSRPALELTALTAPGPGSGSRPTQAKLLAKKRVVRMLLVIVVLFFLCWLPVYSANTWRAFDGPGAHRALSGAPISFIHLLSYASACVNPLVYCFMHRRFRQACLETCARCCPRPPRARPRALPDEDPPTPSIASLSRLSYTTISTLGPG

SMILES	Ki (CCK-1 receptor)	Ki (CCK2 receptor)	CCK1 pKi (CCK-1 receptor)	CCK2 pKi (CCK2 receptor)
C[C@H](CNC(=O)c1ccc(Br)cc1NS(=O)(=O)c1c(F)cccc1F)c1ccccc1 [Example 37, (S)-4-Bromo-2-(2,6-difluoro-benzenesulfonylamino)-N-(2-phenyl-propyl)-benzamide]	398 nM	3980 nM	–	–
C[C@@H](CNC(=O)c1ccc(Br)cc1NS(=O)(=O)c1c(F)cccc1F)c1ccccc1 [Example 38, (R)-4-Bromo-2-(2,6-difluoro-benzenesulfonylamino)-N-(2-phenyl-propyl)-benzamide]	316 nM	2000 nM	–	–
CC(CNC(=O)c1ccc(I)cc1NS(=O)(=O)c1cccc2nsnc12)c1ccc(Cl)c(Cl)c1 (stereo not shown) [Example 39, 2-(Benzo[1,2,5]thiadiazole-4-sulfonylamino)-N-[2-(3,4-dichloro-phenyl)-propyl]-4-iodo-benzamide]	25.1 nM	251 nM	–	–
CC(CNC(=O)c1ccc(I)cc1NS(=O)(=O)c1cccc2nccnc12)c1ccc(Cl)c(Cl)c1 (stereo not shown) [Example 40, N-[2-(3,4-Dichloro-phenyl)-propyl]-4-iodo-2-(quinoxaline-5-sulfonylamino)-benzamide]	126 nM	316 nM	–	–
O=C(N[C@@H](Cc1ccc(Cl)cc1Cl)C(=O)O)c1ccc(Br)cc1NS(=O)(=O)c1c(F)cccc1F [Example 41, 2-[4-Bromo-2-(2,6-difluoro-benzenesulfonylamino)-benzoylamino]-3-(2,4-dichloro-phenyl)-propionic acid]	631 nM	50.1 nM	–	–
CC(CNC(=O)c1ccc(I)cc1NS(=O)(=O)c1c(F)cccc1F)c1ccc(Cl)c(Cl)c1 (stereo not shown) [Example 42, N-[2-(3,4-Dichloro-phenyl)-propyl]-2-(2,6-difluoro-benzenesulfonylamino)-4-iodo-benzamide]	31.6 nM	3160 nM	–	–
CC(CNC(=O)c1ccc(Cl)cc1NS(=O)(=O)c1c(F)cccc1F)c1ccc(Cl)cc1Cl (stereo not shown) [Example 43, 4-Chloro-N-[2-(2,4-dichloro-phenyl)-propyl]-2-(2,6-difluoro-benzenesulfonylamino)-benzamide]	126 nM	251 nM	–	–
CC(CNC(=O)c1ccc(Cl)cc1NS(=O)(=O)c1c(F)cccc1F)c1ccc([N+](=O)[O-])cc1 (stereo not shown) [Example 44, 4-Chloro-2-(2,6-difluoro-benzenesulfonylamino)-N-[2-(4-nitro-phenyl)-propyl]-benzamide]	100 nM	3980 nM	–	–
CC(CNC(=O)c1ccc(Cl)cc1NS(=O)(=O)c1c(F)cccc1F)c1ccc(C(F)(F)F)cc1 (stereo not shown) [Example 45, 4-Chloro-2-(2,6-difluoro-benzenesulfonylamino)-N-[2-(4-trifluoromethyl-phenyl)-propyl]-benzamide]	251 nM	1580 nM	–	–
O=C(N[C@H](Cc1ccc(Cl)cc1Cl)C(=O)O)c1ccc(Cl)cc1NS(=O)(=O)c1c(F)cccc1F [Example 46, 2-[4-Chloro-2-(2,6-difluoro-benzenesulfonylamino)-benzoylamino]-3-(2,4-dichloro-phenyl)-propionic acid]	1580 nM	63.1 nM	–	–
CC(CNC(=O)c1ccc(I)cc1NS(=O)(=O)c1c(F)cccc1F)c1ccc(Cl)cc1Cl (stereo not shown) [Example 47, N-[2-(2,4-Dichloro-phenyl)-propyl]-2-(2,6-difluoro-benzenesulfonylamino)-4-iodo-benzamide]	100 nM	5010 nM	–	–
CC(CNC(=O)c1ccc(I)cc1NS(=O)(=O)c1c(F)cccc1F)c1ccc([N+](=O)[O-])cc1 (stereo not shown) [Example 48, 2-(2,6-Difluoro-benzenesulfonylamino)-4-iodo-N-[2-(4-nitro-phenyl)-propyl]-benzamide]	50.1 nM	2000 nM	–	–
C[C@@H](NC(=O)c1ccc(Cl)cc1NS(=O)(=O)c1cccc2nsnc12)[C@@H](O)c1ccccc1 [Example 49, 2-(Benzo[1,2,5]thiadiazole-4-sulfonylamino)-4-chloro-N-((2S,1R)-2-hydroxy-1-methyl-2-phenyl-ethyl)-benzamide]	200 nM	2000 nM	–	–
O=C(NC1Cc2ccccc2C1)c1ccc(Cl)cc1NS(=O)(=O)c1cccc2nsnc12 [Example 50, 2-(Benzo[1,2,5]thiadiazole-4-sulfonylamino)-4-chloro-N-indan-2-yl-benzamide]	631 nM	6310 nM	–	–
C[C@@H](NC(=O)c1ccc(Cl)cc1NS(=O)(=O)c1cccc2nsnc12)[C@@H](O)c1ccc(Cl)cc1 [Example 55, 2-(Benzo[1,2,5]thiadiazole-4-sulfonylamino)-4-chloro-N-[(1R,2S)-2-(4-chloro-phenyl)-2-hydroxy-1-methyl-ethyl]-benzamide]	39.8 nM	1000 nM	–	–
C[C@H](c1ccc(Cl)c(Cl)c1)[C@H](NC(=O)c1ccc(Cl)cc1NS(=O)(=O)c1cccc2nsnc12)C(=O)O [Example 56, (2S,3R)-2-[2-(Benzo[1,2,5]thiadiazole-4-sulfonylamino)-4-chloro-benzoylamino]-3-(3,4-dichloro-phenyl)-butyric acid]	–	–	6.3	6.8
O=C(N[C@H](Cc1ccc(Cl)c(Cl)c1)C(=O)O)c1ccc(I)cc1NS(=O)(=O)c1cccc2nccnc12 [Example 60, (R)-3-(3,4-Dichloro-phenyl)-2-[4-iodo-2-(quinoxaline-5-sulfonylamino)-benzoylamino]-propionic acid]	79.4 nM	398 nM	–	–
O=C(N[C@H](Cc1ccc(Cl)cc1)C(=O)O)c1cc(Cl)ccc1NS(=O)(=O)c1cccc2nsnc12 [Example 62, (R)-2-[2-(Benzo[1,2,5]thiadiazole-4-sulfonylamino)-5-chloro-benzoylamino]-3-(4-chloro-phenyl)-propionic acid]	316 nM	3160 nM	–	–
O=C(O)C[C@H](Cc1ccc(Cl)c(Cl)c1)NC(=O)c1ccc(Cl)cc1NS(=O)(=O)c1cccc2nccnc12 [Example 64, (S)-3-[4-Chloro-2-(quinoxaline-5-sulfonylamino)-benzoylamino]-4-(3,4-dichloro-phenyl)-butyric acid]	1580 nM	100 nM	–	–
COC(=O)[C@H](Cc1csc2ccccc12)NC(=O)c1ccc(Cl)cc1NS(=O)(=O)c1cccc2nccnc12 [Example 65, (S)-3-Benzo[b]thiophen-3-yl-2-[4-chloro-2-(quinoxaline-5-sulfonylamino)-benzoylamino]-propionic acid methyl ester]	316 nM	794 nM	–	–
O=C(N[C@@H](Cc1csc2ccccc12)C(=O)O)c1ccc(Cl)cc1NS(=O)(=O)c1cccc2nccnc12 [Example 66, (S)-3-Benzo[b]thiophen-3-yl-2-[4-chloro-2-(quinoxaline-5-sulfonylamino)-benzoylamino]-propionic acid]	2000 nM	501 nM	–	–
COC(=O)[C@H](Cc1ccc(Cl)cc1)NC(=O)c1cc(Cl)c(Cl)cc1NS(=O)(=O)c1cccc2nsnc12 [Example 67, (S)-2-[2-(Benzo[1,2,5]thiadiazole-4-sulfonylamino)-4,5-dichloro-benzoylamino]-3-(4-chloro-phenyl)-propionic acid methyl ester]	200 nM	251 nM	–	–
O=C(N[C@@H](Cc1ccc(Cl)cc1)C(=O)O)c1cc(Cl)c(Cl)cc1NS(=O)(=O)c1cccc2nsnc12 [Example 68, (S)-2-[2-(Benzo[1,2,5]thiadiazole-4-sulfonylamino)-4,5-dichloro-benzoylamino]-3-(4-chloro-phenyl)-propionic acid]	316 nM	31.6 nM	–	–
